Data reported in patent US11578055B2, “Triazacyclododecansulfonamide (“TCD”)-based protein secretion inhibitors” (KEZAR LIFE SCIENCES, priority 2018, dated 2023).
Where two headings read alike, the source gives them in different places.

Tests used:
[1] = In Vitro Microsome Stability Assay (human); assay type: in vitro ADME
Method in brief: (§1)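 Test article, added from a 0.25 mM DMSO stock, was incubated with liver microsomes (20 mg/mL stock) in 0.1 M potassium phosphate at 37° C, with the reaction started by NADPH. Samples were quenched with acetonitrile containing internal standard at 0 and 30 min and analysed by LC-MS/MS. Values are % remaining at 30 min versus 0 min, using IS-normalised AUC ratios.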

[2] = In Vitro Microsome Stability Assay (rat); assay type: in vitro ADME
Method in brief: as §1

[3] = In Vitro Microsome Stability Assay (mouse); assay type: in vitro ADME
Method in brief: as §1

[4] = test system: multiple myeloma cell line U266B1; experiment: U266 Cell Viability Assay; assay type: cell-based, human; settings: Homo sapiens, U-266, 48 hr
Method in brief: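 U266B1 myeloma cells in RPMI 1640 with 10% FBS were treated with compound dilutions for 48 h at 37° C, 5% CO2. Viability was read as CellTiter-Glo luminescence. Data for structures drawn without stereochemistry refer to stereoisomer mixtures.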

[5] = test system: full length TNFα (amino acids 1-233) fused to Gaussia Luciferase; experiment: Dox Induced TNFα-FL-Gluc Assay; assay type: cell-based; settings: 24 hr, read-out: 24 hr Dox Inducible TNFaFLGluc 293FRT/TO: Mean IC50
Method in brief: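 Stable Flp-In 293 T-REx line expressing doxycycline-inducible full-length TNFα fused to Gaussia luciferase; cells plated the day before, then treated with compound dilutions in doxycycline-containing medium at 37° C, 5% CO2. Unspecified stereocentres mean stereoisomer mixtures were tested.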

[6] = In Vitro Microsome Stability Assay (monkey); assay type: in vitro ADME
Method in brief: as §1

[7] = test system: multiple myeloma cell line NCl-H929; experiment: H929 Cell Viability Assay; assay type: cell-based, human; settings: Homo sapiens, NCI-H929, 48 h
Method in brief: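 NCI-H929 myeloma cells in RPMI 1640 with 10% FBS were treated with compound dilutions for 48 h at 37 °C, and viability was then read by CellTiter-Glo luminescence. Compounds drawn without stereochemistry were tested as stereoisomer mixtures.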

[8] = test system: PD1 signal sequence plus 10 amino acids fused to Gaussia Luciferase (PD1-ss+10aa/Gaussia Luciferase); experiment: Dox Induced PD1-ss-Gluc Assay; assay type: cell-based; settings: 24 hr, read-out: 24 hr Dox Inducible PD1ssGluc 293FRT/TO: Mean IC50
Method in brief: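 Stable Flp-In 293 T-REx line expressing the fusion under tetracycline-inducible control, plated the day before assay. Compound dilutions added with doxycycline and incubated at 37 °C, 5% CO2; unspecified stereocentres mean data refer to stereoisomer mixtures.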

[9] = U266, read-out: 48 hr U266 Viability Celltiter-Glo: Mean EC50
[10] = H929, read-out: 48 hr H929 Viability Celltiter-Glo: Mean EC50

Row | Structure (SMILES) | Liver Microsome Stability-% Left after 30 min w/ NADPH (%) Human ([1]; human liver microsomes, 30 min w/ NADPH) [%] | Liver Microsome Stability-% Left after 30 min w/ NADPH (%) Rat ([2]; rat liver microsomes, 30 min w/ NADPH) [%] | Liver Microsome Stability-% Left after 30 min w/ NADPH (%) Mouse ([3]; mouse liver microsomes, 30 min w/ NADPH) [%] | EC50 ([4]; U266, Celltiter-Glo) [µM] | IC50 ([5]; Dox inducible, 293FRT/TO cells) [µM] | Liver Microsome Stability-% Left after 30 min w/ NADPH (%) Monkey ([6]; monkey liver microsomes, 30 min w/ NADPH) [%] | EC50 ([7]; H929, Celltiter-Glo) [µM] | IC50 ([8]; Dox inducible, 293FRT/TO cells) [µM] | Liver Microsome Stability-% Left after 30 min w/ NADPH (%) Human ([1]; human, 30 min, NADPH) [%] | Liver Microsome Stability-% Left after 30 min w/ NADPH (%) Rat ([2]; rat, 30 min, NADPH) [%] | Liver Microsome Stability-% Left after 30 min w/ NADPH (%) Mouse ([3]; mouse, 30 min, NADPH) [%] | EC50 [4, 9] [µM] | IC50 ([5]; 293FRT/TO) [µM] | Liver Microsome Stability-% Left after 30 min w/ NADPH (%) Monkey ([6]; monkey, 30 min, NADPH) [%] | EC50 [7, 10] [µM] | IC50 ([8]; 293FRT/TO) [µM]
1 | C=C1CN(S(=O)(=O)c2ccc(C)cc2)CCCN(CC2CCCCC2)CC(C)CN(S(=O)(=O)c2ccc(C)cc2)C1 (stereo not drawn) [B2, 1-(cyclohexylmethyl)-3-methyl-5,9-bis(4-methylbenzenesulfonyl)-7-methylidene-1,5,9-triazacyclododecane] | 0.35 | 1.46 | 0.55 | > 25 | > 25 | 0.23 | > 25 | 1.72 | – | – | – | – | – | – | – | –
2 | C=C1CN(S(=O)(=O)c2ccc(N(C)C)cc2)CCCN(CC2CCCCC2)CCCN(S(=O)(=O)N2CCc3ccc(Cl)cc3C2)C1 [A52, 4-({5-[(7-chloro-1,2,3,4-tetrahydroisoquinolin-2-yl)sulfonyl]-9-(cyclohexylmethyl)-3-methylidene-1,5,9-triazacyclododecan-1-yl}sulfonyl)-N,N-dimethylaniline] | – | – | – | – | – | – | – | – | 31 | 40.1 | 29.3 | > 25 | 1.04 | 38.3 | 2.11 | 0.0456
3 | C=C1CN(S(=O)(=O)c2ccc(C)cc2)CCCN(CC2CCOCC2)CCCN(S(=O)(=O)c2ccc(N(C)C)cc2)C1 [A9, N,N-dimethyl-4-{[5-(4-methylbenzenesulfonyl)-3-methylidene-9-[(oxan-4-yl)methyl]-1,5,9-triazacyclododecan-1-yl]sulfonyl}aniline] | – | – | – | – | – | – | – | – | 0.09 | 0.14 | 0.34 | > 25 | > 25 | 0.66 | > 25 | 1.11
4 | C=C1CN(S(=O)(=O)c2ccc(N(C)C)cc2)CCCN(CC2CCCCC2)CCCN(S(=O)(=O)N2CCN(c3ccccc3)[C@H](C)C2)C1 [A46, 4-{[9-(cyclohexylmethyl)-5-{[(3 R)-3-methyl-4-phenylpiperazin-1-yl]sulfonyl}-3-methylidene-1,5,9-triazacyclododecan-1-yl]sulfonyl}-N,N-dimethylaniline] | – | – | – | – | – | – | – | – | 6.12 | 4.46 | 3.63 | > 25 | 1.76 | 1.44 | 3.34 | 0.0501
5 | CN(C)c1ccc(S(=O)(=O)N2CCCN(CC3CCCCC3)CCCN(S(=O)(=O)N3CCCCCC3)CC3(CC3)C2)cc1 [A25, 4-{[13-(azepane-1-sulfonyl)-9-(cyclohexylmethyl)-5,9,13-triazaspiro[2.11]tetradecan-5-yl]sulfonyl}-N,N-dimethylaniline] | – | – | – | – | – | – | – | – | 0.12 | 4.16 | 0.32 | > 25 | > 25 | 0.2 | > 25 | 0.435
6 | O=S(=O)(C1CCCCC1)N1CCCN(CC2CCCCC2)CCCN(S(=O)(=O)N2CCCCC2)CC2(CC2)C1 [A41] | – | – | – | – | – | – | – | – | 0.08 | 0.14 | 0.2 | > 25 | > 25 | 0.1 | > 25 | 17.5
